SMILES strings stand for the structures. Like-named read-outs stand apart in the source and are kept apart here.

Assay [1] deals with melanoma cell lines (UACC 903, 1205Lu). The experiment in a line: MTS assay, melanoma cell lines (cell line not given). Format: cell-based, human. Particulars: Homo sapiens; Example 8. The method, then:
The mechanistic basis of leelamine's activity to inhibit melanoma cell growth is determined by examining the effect of leelamine on 1) cell viability using the MTS assay; 2) proliferation using a BrdU incorporation assay; 3) apoptosis using an assay for caspase-3/7 activity; and 4) cell cycle analysis. The MTS assay as described in Sharma, A. et al., Clin Cancer Res, 2009, 15:1674-85; and Madhunapantula, S. V. et al., Mol Cancer Ther, 2008, 7:1297-308 is used to assay cell viability. Rates of proliferation and apoptosis are measured by seeding 5×10^3 cells in 96-well plates, followed by treatment with 0.62 to 10 μmol/L of leelamine for 24 hours. Proliferating and apoptotic cells are quantified using a colorimetric cell proliferation ELISA BrdU kit (Roche diagnostics, Indianapolis, Ind.) or Apo-ONE Homogenous caspase-3/7 assay kit (Promega, Madison, Wis.), respectively, as described in Sharma, A. et al., Clin Cancer Res, 2009, 15:1674-85; and Madhunapantula, S. V. et al., Mol Cancer Ther, 2008, 7:1297-308.
(§1) Dehydroabietylamine, its N-substituted derivatives and the corresponding dihydroabietylamine and its N-substituted derivatives are tested for their capability to inhibit cell growth of cancer cell lines, including melanoma (UACC 903, 1205Lu), breast (MCF-7), fibrosarcoma (HT-1080), colon (Caco-2), and prostate (PC-3) cancer cell lines. Viability and IC50 of normal human fibroblasts and cell lines from melanoma and other malignancies following treatment with all the agents are measured using the MTS assay (Promega, Madison, Wis.). Human fibroblast FF2441 cells, metastatic melanoma cell lines 1205 Lu and UACC 903 as well as cancer cell lines representing sarcoma (HT-1080), prostate (PC-3, LNCaP), breast (MCF-7) and lung (A-549) are maintained in DMEM (Invitrogen, Carlsbad, Calif.) supplemented with 10% FBS (Hyclone, Logan, Utah) in a 5% CO2 atmosphere, humidified 37° C. incubator. 5×10^3 cells per well in 100 μL of media are plated and grown in a 96-well plate for 48 to 72 h and treated with either DMSO vehicle control or 0.62 to 40 μmol/L for 24, 48 or 72 h. IC50 values for each compound in […] for respective cell lines are measured from three independent experiments using GraphPad Prism version 4.01 (GraphPad Software, La Jolla, Calif.). FIG. 52 is a graph showing IC50 values for leelamine and compounds 4a, 4b and 5a in treated fibroblasts (FF2441) compared to melanoma cells. Selectivity ratio here is defined as ratio of activity against fibroblasts compared to activity against melanoma cells. Leelamine is relatively selective with a ratio of >6 and >4 for UACC903 and 1205Lu melanoma cells. The selectivity ratio of compound 4a is ˜4 and ˜3 for UACC903 and 1205Lu and for compound 4b is ˜4 for both cell lines. The selectivity ratio of compound 5a is ˜4 for UACC903 and >2 for 1205Lu cells.
In general terms: Formazan colour is commonly taken as a measure of viable cells.

In assay [2] the test system is FF2441 normal human fibroblasts. The experiment in a line: MTS assay viability IC50, normal fibroblasts. Format: cell-based. As to the method: (§2) The efficacy of leelamine to kill other cancer types is measured and the IC50 for cell lines derived from carcinomas of breast, lung, prostate, connective tissue, pancreas and colon determined. The MTS assay as described in Sharma, A. et al., Clin Cancer Res, 2009, 15:1674-85; and Madhunapantula, S. V. et al., Mol Cancer Ther, 2008, 7:1297-308 is used to establish the IC50 at 24, 48 and 72 hours of leelamine treatment for normal human epidermal melanocytes (FOM103), normal skin fibroblast cells (FF2441), normal skin keratinocytes (HFK) and compared to melanocytic lesion cells from the radial-, vertical- and metastatic melanoma stages. 5×10^3 cells per well in 100 μL of media are plated and grown in a 96-well plate for 48 to 72 hours and treated with either DMSO vehicle control or 0.62 to 40 μmol/L of leelamine for 24, 48 or 72 hours. IC50 values for each compound in μmol/L for respective cell lines are measured from three independent experiments using GraphPad Prism version 4.01 (GraphPad Software, La Jolla, Calif.). Leelamine is found to be not toxic to normal cells and effective to kill melanoma cells as well as non-melanoma cancer cells as shown in Table 1 in FIG. 20. Leelamine is 3- to 4-fold more specific at killing metastatic melanoma than normal cells, supporting cancer therapeutic utility at concentrations<2 μmol/L.
5×10^3 cells per well in 100 μL of media are plated and grown in a 96-well plate for 48 to 72 hours and treated with either DMSO vehicle control or 0.62 to 40 μmol/L of leelamine for 24, 48 or 72 hours. IC50 values for each compound in μmol/L for respective cell lines are measured from three independent experiments using GraphPad Prism version 4.01 (GraphPad Software, La Jolla, Calif.). […]
as §1

The test system of assay [3] is 1205 Lu metastatic melanoma cells. The experiment in a line: MTS assay viability IC50, 1205 Lu. The note with it: for IC50: Homo sapiens, 1205Lu. Format: cell-based, human. The method, then: as §2
(§3) 5×10^3 cells per well in 100 μL of media are plated and grown in a 96-well plate for 48 to 72 hours and treated with either DMSO vehicle control or 0.62 to 40 μmol/L of leelamine for 24, 48 or 72 hours. IC50 values for each compound in μmol/L for respective cell lines are measured from three independent experiments using GraphPad Prism version 4.01 (GraphPad Software, La Jolla, Calif.).
(§4) The IC50 and effect of liposomal preparations of leelamine on viability of normal human melanocytes, fibroblasts and melanoma cells UACC 903 and 1205 Lu are measured using the MTS assay (Promega, Madison, Wis.). Empty liposomes or liposomes containing abietic acid are used as controls. 5×10^3 cells per well in 100 μL of media are plated and grown in a 96-well plate for 48 or 72 hours for melanoma and normal cell lines, respectively. The cells are then treated with 0.62 to 40 μmol/L of liposome alone, a liposomal preparation of abietic acid, or with Nanolipolee-007 for 24 hours. IC50 values for each liposome in μmol/L for respective cell lines are measured from three independent experiments using GraphPad Prism version 4.01 (GraphPad Software, La Jolla, Calif.). Nanolipolee-007 retains the growth inhibitory activity of leelamine in killing melanoma cells in culture and specifically kills melanoma cells compared to normal cells, FIG. 24.
as §1, with “FIG. 52 is a graph showing IC50 values for leelamine and compounds 4a, 4b and 5a in treated fibroblasts (FF2441) compared to melanoma cells. Selectivity ratio here is defined as ratio of activity against fibroblasts compared to activity against melanoma cells. Leelamine is relatively selective with a ratio of >6 and >4 for UACC903 and 1205Lu melanoma cells. The selectivity ratio of compound 4a is ˜4 and ˜3 for UACC903 and 1205Lu and for compound 4b is ˜4 for both cell lines. The selectivity ratio of compound 5a is ˜4 for UACC903 and >2 for 1205Lu cells.” left out

Assay [4] concerns UACC 903 metastatic melanoma cells. The experiment in a line: MTS assay viability IC50, UACC 903. Format: cell-based, human. The note with it: for IC50: Homo sapiens, UACC-903. The method, then:
as §2, §3, §4
as §1, with “FIG. 52 is a graph showing IC50 values for leelamine and compounds 4a, 4b and 5a in treated fibroblasts (FF2441) compared to melanoma cells. Selectivity ratio here is defined as ratio of activity against fibroblasts compared to activity against melanoma cells. Leelamine is relatively selective with a ratio of >6 and >4 for UACC903 and 1205Lu melanoma cells. The selectivity ratio of compound 4a is ˜4 and ˜3 for UACC903 and 1205Lu and for compound 4b is ˜4 for both cell lines. The selectivity ratio of compound 5a is ˜4 for UACC903 and >2 for 1205Lu cells.” left out

Another assay relates to cancer cell line. The assay can be described thus: MTS assay viability IC50, A-459. The format is cell-based. The note with it: A459; Table 5; read-out: IC50 Liver (A-459). As to the method: as §1
The subject of assay [5] is Prostate (LnCap) cancer cell line. The experiment in a line: MTS assay viability IC50, LnCap. Format: cell-based. Particulars: Homo sapiens, Table 5. As to the method: as §1
Assay [6] concerns Breast (MCF-7) cancer cell line. The experiment in a line: MTS assay viability IC50, MCF-7. The format is cell-based. The note with it: Homo sapiens, MCF7; Table 5. The method, then:
as §1

In assay [7] the test system is Prostate (PC-3) cancer cell line. The experiment in a line: MTS assay viability IC50, PC-3. The format is cell-based. Particulars: Table 5. The method, then:
as §1

Assay [8] concerns Fibrosarcoma (HT-1080) cancer cell line. The assay can be described thus: MTS assay viability IC50, HT-1080. The format is cell-based. The note with it: Homo sapiens, Table 5, read-out: IC50 Fibro Sarcoma (HT-1080). As to the method: as §1
The mark [9] stands for this setting: Table 6, read-out: IC50 Metastatic melanoma 1205 Lu.
Where [10] appears, read: Table 6, read-out: IC50 Metastatic melanoma UACC 903.
The mark [11] stands for this setting: Table 7, read-out: IC50 (UACC903).
The mark [12] stands for this setting: activity against fibroblasts FF2441 compared to melanoma cells.

As a reminder, the IC50 is the concentration that gives 50% inhibition. On to `CNC(=O)[C@]1(C)CCC[C@]2(C)C3CCC(C(C)C)=CC3=CCC21` (stereo partly drawn) [Compound 3b, (1R,4aR)-N,1,4a-trimethyl-7-(propan-2-yl)-1,2,3,4,4a,4b,5,6,10,10a-decahydrophenanthrene-1-carboxamide], for which the IC50 in assay [1] is over 100 µM; in assay [2] (Table 6, read-out: IC50 Normal fibroblast FF2441), over 100 µM; in assay [3] (setting [9]) it was over 100000 nM; in assay [4] (setting [10]) it was over 100000 nM; in assay [4] (setting [11]), over 100000 nM.

For the compound `CNC[C@]1(C)CCC[C@]2(C)C3CCC(C(C)C)=CC3=CCC12` (stereo partly drawn) [Compound 4b, {[(1R,4aR)-1,4a-dimethyl-7-(propan-2-yl)-1,2,3,4,4a,4b,5,6,10,10a-decahydrophenanthren-1-yl]methyl}(methyl)amine], the IC50 in the assay on cancer cell line is 15.3 ± 1.83 µM; in assay [2] (Homo sapiens, FF2441, Table 5, read-out: IC50 Fibroblast FF2441), 9.33 ± 1.27 µM; in assay [5], 22.4 ± 3.31 µM; in assay [6], 9.04 ± 2.43 µM; in [7], 10.7 ± 0.87 µM; in assay [3] (Example 8, read-out: IC50 1205Lu), 2380 nM. In addition, the IC50 came to 2380 ± 140 nM in [3] (Table 4, read-out: IC50 Metastatic Melanoma Cell line 1205Lu); 2380 ± 140 nM in assay [3] (setting [9]); 2360 nM in assay [4] (Example 8, read-out: IC50 UACC 903); 2360 ± 250 nM in [4] (Table 4, read-out: IC50 Metastatic Melanoma Cell line UACC903); 2360 ± 250 nM in assay [4] (Table 5, read-out: IC50 Melanoma (UACC903)); 2360 ± 250 nM in assay [4] (setting [10]). Further, the IC50 in assay [4] (setting [11]) was found to be 2360 nM; in [8], 4.54 ± 0.87 µM. For the same compound, the “Selectivity ratio, fibroblasts versus 1205Lu” value in assay [3] (setting [12]) was about 4. Moreover, the “Selectivity ratio, fibroblasts versus UACC903” value in assay [4] (setting [12]) was about 4.

These data come from patent publication US9839618B2, “Compositions and methods relating to proliferative diseases” (The Penn State Research Foundation, priority 2010, dated 2017).
